# Experimental data reported in PMC8196787, “Design and Pharmacodynamics of Recombinant Fungus Defensin NZL with Improved Activity against Staphylococcus hyicus In Vitro and In Vivo” (International Journal of Molecular Sciences, 2021).
# Values joined by “and” are separate entries in the source; they are usually repeats but may differ in a detail not shown here. Equal entries are not always repeated. Where two headings read alike, the source gives them in different places. Positions of bridges follow the written chain, without caps; N, C: chain ends. Residues, ends and D or L forms follow the SMILES beside them.
# How the values were obtained:
# S. aureus ATCC 25923 = assay: microbe, parasite or virus in culture; format: cell-based; conditions: MHB, 37 °C, 16–20 h, triplicate
# Method: (§1) The microbroth dilution method was used to evaluate the MIC values of new derivative peptides. […] The MIC value was defined as the lowest concentration where no visible bacteria growth occurred after overnight incubation. CRO was used as the positive control. All assays were conducted in triplicate.
# S. aureus ATCC 43300 = assay: microbe, parasite or virus in culture; format: cell-based; conditions: read-out: MIC
# Method: as §1
# S. hyicus ACCC 61734 = assay: microbe, parasite or virus in culture; format: cell-based; conditions: for MIC: S. hyicus ACCC 61734 (clinical strain), microbroth dilution, MHB, 37 °C, 16–20 h, triplicate, read-out: MIC
# Method: as §1
# S. hyicus NCTC 10350 [1] = assay: microbe, parasite or virus in culture; format: cell-based; conditions: MHB, 37 °C, 16–20 h, triplicate
# Method: as §1
# S. hyicus NCTC 10350 [2] = assay: Time-killing curves; format: cell-based
# Method: Time-kill curves were performed to assess the bactericidal rates of peptides against S. hyicus NCTC 10350 [25]. […] The samples were taken at regular intervals for colony counting. Cells treated with PBS and CRO were used as the negative control and positive control.
# [3] = system: intracellular S. hyicus NCTC 10350 in Hacat cells; format: cell-based; conditions: 24 h treatment, mean, n = 3; for Killing rate of intracellular S. hyicus: 1000× MIC
# Method: Hacat cells (2.5 × 10^5 cells/mL) were dispensed into a 12-well plate for 24 h. Besides, the mid-log phase S. hyicus NCTC 10350 (2.5 × 10^7 CFU/mL) were coincubated with Hacat cells for 0.5 h. Then, lysostaphin was supplemented to kill extracellular bacteria. Hereafter, cells were treated with peptides or CRO for 24 h and lysed with lysis buffer. The intracellular bacteria were processed for colony counting.
# mouse erythrocytes = assay: Hemolysis; format: cell-based; conditions: at 256 μg/mL; 8% (v/v) mouse erythrocytes in 0.9% NaCl, 37 °C, 1 h, 540 nm; n = 3
# Method: The hemolytic activity of peptides against fresh mouse erythrocytes was evaluated as described previously. In brief, 8% (v/v) erythrocyte solution in 0.9% NaCl was mixed with peptide solution (1–256 μg/mL) in an equal volume; then the mixtures were incubated at 37 °C for 1 h, centrifuged at 5000 rpm for 5 min and measured at 540 nm on a microplate reader. The absorbance of 0.9% NaCl (A0) and 0.1% Triton X-100 (A100) was used as controls. The hemolysis percentages of peptide were calculated by the following equation: Hemolysis (%) = [(A − A0)/(A100 − A0)] × 100.
# Hacat cells = assay: Cytotoxicity, MTT assay; format: cell-based; conditions: within 256 μg/mL (1–256 μg/mL), n = 3
# Method: The cytotoxicity of peptides toward Hacat cells was determined by the 3-(4,5-dimethylthiazol-2-yl)-2,5-diphenyltetrazolium bromide (MTT) assay according to a previous study.
# S. hyicus NCTC 10350 [4] = assay: Thermal stability, inhibition zone assay; format: physicochemical; conditions: 1 h, 64 μg/mL, inhibition zone against S. hyicus NCTC 10350, triplicate
# Method: (§2) The stability of NZL or NZ2114 against S. hyicus NCTC 10350 was conducted by inhibition zone assays. To evaluate the thermal stability, 64 μg/mL NZL or NZ2114 was incubated at different temperatures (20 °C, 40 °C, 60 °C, 80 °C, and 100 °C) for 1 h. Besides, aliquots of NZL or NZ2114 were dissolved in different pH buffers in a range from 2.0 to 10.0 at 37 °C for 3 h to analyze the pH stability. NZL or NZ2114 was mixed with pepsin or trypsin solutions at a ratio of 10:1 (w/w) to determine the protease stability. The untreated peptides and buffers alone were used as positive controls and negative controls, respectively. All assays were conducted in triplicate.
# S. hyicus NCTC 10350 [5] = assay: pH stability, inhibition zone assay; format: physicochemical; conditions: 3 h, triplicate
# Method: as §2
# S. hyicus NCTC 10350 [6] = assay: Mouse peritonitis model, survival; format: in vivo; conditions: 7 days
# Method: The mice (6 mice/group) were intraperitoneally infected with the exponential phase S. hyicus NCTC 10350 cells (1 × 10^9 CFU/mL, 1 mL) to establish a mouse peritonitis model. […] Survival of mice was recorded daily for 7 days.
# S. hyicus NCTC 10350 [7] = assay: Mouse peritonitis model, bacterial translocation; format: in vivo; conditions: 24 h post-treatment, mean, n = 5
# Method: (§3) Likewise, mice (15 mice/group) were injected with the exponential phase S. hyicus NCTC 10350 cells (1 × 10^9 CFU/mL, 1 mL) and treated with 10 mg/kg peptides or 60 mg/kg CRO. After 2 and 24 h post-treatment, sera were collected to test the levels of cytokines using enzyme linked immunosorbent assay (ELISA) kit. To evaluate bacterial translocation, organs were harvest from mice at 24-h post-treatment for colony counting; then, organs were removed from mice at 5 d post-treatment and observed through a light microscope to assess organ injury. The uninfected mice, the treated mice with CRO or PBS were served as the blank control, positive and negative control, respectively.
# IL-1β = assay: Mouse peritonitis model, serum cytokine ELISA; format: in vivo
# Method: as §3
# IL-6 = assay: Mouse peritonitis model, serum cytokine ELISA; format: in vivo
# Method: as §3
# TNF-α = assay: Mouse peritonitis model, serum cytokine ELISA; format: in vivo
# Method: as §3
# S. hyicus NCTC 10350 [8] = assay: Mouse peritonitis model, organ injury by light microscope; format: in vivo; conditions: 10 mg/kg, organs harvested at 5 d
# Method: as §3
# [9] = microbroth dilution, read-out: MIC
smiles,measurement,setting,value
"CC[C@H](C)[C@@H]1NC(=O)[C@H](CO)NC(=O)[C@H](CCCCN)NC(=O)[C@@H]2CSSC[C@@H](C(=O)N[C@@H](Cc3ccc(O)cc3)C(=O)O)NC(=O)[C@H](CCCCN)NC(=O)[C@@H]3CSSC[C@H](NC(=O)[C@H](CCC(N)=O)NC(=O)[C@H]([C@@H](C)CC)NC(=O)[C@H](CC(=O)O)NC(=O)[C@H](CC(=O)O)NC(=O)[C@H](CCC(=O)O)NC(=O)[C@H](CO)NC(=O)[C@H](Cc4c[nH]c5ccccc45)NC(=O)[C@@H]4CCCN4C(=O)CNC(=O)[C@H](CC(N)=O)NC(=O)[C@@H](NC(=O)CNC(=O)[C@H](Cc4ccccc4)NC(=O)CN)CSSC[C@H](NC(=O)[C@H](Cc4ccc(O)cc4)NC(=O)CNC(=O)CNC(=O)[C@H](CCCCN)NC(=O)[C@H](Cc4ccc(O)cc4)NC(=O)CNC(=O)[C@H](CCCCN)NC1=O)C(=O)N[C@@H](C)C(=O)N[C@@H](CCCCN)C(=O)NCC(=O)NCC(=O)N[C@@H](Cc1ccccc1)C(=O)N[C@@H](C(C)C)C(=O)N3)C(=O)N[C@@H](Cc1c[nH]cn1)C(=O)N[C@@H](CC(N)=O)C(=O)N[C@@H](Cc1c[nH]cn1)C(=O)N2 [NZL] (H-GFGCNGPWSEDDIQCHNHCKSIKGYKGGYCAKGGFVCKCY-OH; disulfide 4-30, 15-37, 19-39; N-terminus and C-terminus assumed)",MIC,S. aureus ATCC 25923; microbroth dilution,4 µg/mL
same,MIC,S. aureus ATCC 25923; [9],0.92 µM
same,MIC,"S. aureus ATCC 43300; S. aureus ATCC 43300, microbroth dilution, MHB, 37 °C, 16–20 h, triplicate",0.46 µM
same,MIC,S. hyicus ACCC 61734,0.23 µM
same,Change of MIC against S. hyicus ACCC 61734 compared with NZ2114,"S. hyicus ACCC 61734; clinical strain, NZL vs NZ2114",four-fold
same,MIC,S. hyicus NCTC 10350 [1]; microbroth dilution,4 µg/mL
same,MIC,S. hyicus NCTC 10350 [1]; [9],0.92 µM
same,Reduction of bacterial counts,"S. hyicus NCTC 10350 [2]; 1× MIC, MHB",7.37 Log10 CFU/mL
same,Time within which S. hyicus NCTC 10350 cells were killed completely,"S. hyicus NCTC 10350 [2]; 2× and 4× MIC, 1 × 10^5 CFU/mL in MHB, colony counting",≤ 8 h
same,Decrease of intracellular S. hyicus,[3]; 10× MIC,84.95%
same,Killing rate of intracellular S. hyicus,[3],99.96%
same,Maximum hemolysis,mouse erythrocytes,1.11%
same,Minimum cell viability,Hacat cells,60.28%
same,Thermal stability,S. hyicus NCTC 10350 [4]; 20 to 80 °C,good thermal stability
same,Activity after heating,S. hyicus NCTC 10350 [4]; 100 °C,no activity
same,pH stability,"S. hyicus NCTC 10350 [5]; pH 2 to 10, 37 °C, inhibition zone against S. hyicus NCTC 10350",retained strong stable activity
same,Activity in the acidic environment,"S. hyicus NCTC 10350 [5]; pH 4, 37 °C, inhibition zone against S. hyicus NCTC 10350, relative to untreated peptide",94%
same,Survival rate,"S. hyicus NCTC 10350 [6]; 5 mg/kg i.p. at 2 h and 8 h post-infection, ICR mice, S. hyicus NCTC 10350 10^9 CFU i.p., 6 mice/group",50%
same,Survival rate,"S. hyicus NCTC 10350 [6]; 10 mg/kg i.p. at 2 h and 8 h post-infection, ICR mice, S. hyicus NCTC 10350 10^9 CFU i.p., 6 mice/group",83.3%
same,Bacterial counts in blood,S. hyicus NCTC 10350 [7]; 10 mg/kg,0.16 Log10 CFU/0.1 g
same,Bacterial counts in kidneys,S. hyicus NCTC 10350 [7]; 10 mg/kg,0.25 Log10 CFU/0.1 g
same,Bacterial counts in livers,S. hyicus NCTC 10350 [7]; 10 mg/kg,0.34 Log10 CFU/0.1 g
same,Bacterial counts in lungs,S. hyicus NCTC 10350 [7]; 10 mg/kg,0.62 Log10 CFU/0.1 g
same,Bacterial counts in spleens,S. hyicus NCTC 10350 [7]; 10 mg/kg,0.58 Log10 CFU/0.1 g
same,Serum level of IL-1β,"IL-1β; 10 mg/kg, 2 h after treatment",74.00 pg/mL
same,Serum level of IL-1β,"IL-1β; 10 mg/kg, 24 h after treatment",24.02 pg/mL
same,Serum level of IL-6,"IL-6; 10 mg/kg, 2 h after treatment",1029.28 pg/mL
same,Serum level of IL-6,"IL-6; 10 mg/kg, 24 h after treatment",44.92 pg/mL
same,Serum level of TNF-α,"TNF-α; 10 mg/kg, 2 h after treatment",184.14 pg/mL
same,Serum level of TNF-α,"TNF-α; 10 mg/kg, 24 h after treatment",5.75 pg/mL
same,"Organ injury (livers, spleens, lungs, kidneys)",S. hyicus NCTC 10350 [8],apparently less damaged
"CO/N=C(\C(=O)N[C@@H]1C(=O)N2C(C(=O)O)=C(CSc3nc(=O)c(=O)[nH]n3C)CS[C@H]12)c1csc(N)n1 [CRO, ceftriaxone, reference compound]",MIC,"S. aureus ATCC 25923; Staphylococcus aureus, ATCC25923, microbroth dilution, read-out: MIC",4 µg/mL and 6.04 µM
same,MIC,"S. aureus ATCC 43300; Staphylococcus aureus, ATCC43300, S. aureus ATCC 43300, microbroth dilution, MHB, 37 °C, 16–20 h, triplicate",12.1 µM
same,MIC,"S. aureus ATCC 43300; Staphylococcus aureus, ATCC43300",8 µg/mL
same,MIC,"S. hyicus ACCC 61734; Staphylococcus hyicus, ACCC61734",4 µg/mL and 6.04 µM
same,MIC,"S. hyicus NCTC 10350 [1]; Staphylococcus hyicus, NCTC10350, microbroth dilution, read-out: MIC",8 µg/mL and 12.1 µM
same,Bacterial count at regrowth,"S. hyicus NCTC 10350 [2]; 2× MIC, at 24 h",5.65 Log10 CFU/mL
same,Decrease of intracellular S. hyicus,"[3]; 1× MIC, colony counting",88.53%
same,Decrease of intracellular S. hyicus,[3]; 5× MIC,89.25%
same,Decrease of intracellular S. hyicus,[3]; 10× MIC,83.87%
same,Killing rate of intracellular S. hyicus,[3],97.6%
same,Survival rate,"S. hyicus NCTC 10350 [6]; 30 mg/kg and 60 mg/kg i.p. at 2 h and 8 h post-infection, compared with NZL 5 mg/kg and 10 mg/kg",identical survival rates with NZL
same,Bacterial counts in blood,S. hyicus NCTC 10350 [7]; 60 mg/kg,1.02 Log10 CFU/0.1 g
same,Bacterial counts in kidneys,S. hyicus NCTC 10350 [7]; 60 mg/kg,4.69 Log10 CFU/0.1 g
same,Bacterial counts in livers,S. hyicus NCTC 10350 [7]; 60 mg/kg,4.35 Log10 CFU/0.1 g
same,Bacterial counts in lungs,S. hyicus NCTC 10350 [7]; 60 mg/kg,5.21 Log10 CFU/0.1 g
same,Bacterial counts in spleens,S. hyicus NCTC 10350 [7]; 60 mg/kg,5.19 Log10 CFU/0.1 g
same,Serum level of IL-1β,"IL-1β; 60 mg/kg, 2 h after treatment",94.75 pg/mL
same,Serum level of IL-1β,"IL-1β; 60 mg/kg, 24 h after treatment",11.60 pg/mL
same,Serum level of IL-6,"IL-6; 60 mg/kg, 2 h after treatment",981.56 pg/mL
same,Serum level of IL-6,"IL-6; 60 mg/kg, 24 h after treatment",85.74 pg/mL
same,Serum level of TNF-α,"TNF-α; 60 mg/kg, 2 h after treatment",233.16 pg/mL
same,Serum level of TNF-α,"TNF-α; 60 mg/kg, 24 h after treatment",3.43 pg/mL
